Results taken from patent US20150329864A1, “DESIGN OF OLIGONUCLEOTIDE ANALOGS AS THERAPEUTIC AGENTS” (SPRING BANK PHARMACEUTICALS, INC., priority 2010, published 2015).

Assays:
HCV = assay: Combination studies against HCV in replicon assays; type: cell-based; settings: Hepatitis C virus; monotherapy; read-out: EC50 (uM), single drug
human hepatitis B virus [1] = assay: Anti-HBV activity in the HBV transgenic mouse model, oral administration; type: in vivo, transgenic mice; settings: 10 mg/kg/d, oral, once daily 14 days
Method: Compound 6k was evaluated for anti-HBV activity in the transgenic mouse model of HBV infection. Male transgenic mouse infected with HBV, with age ranging from 78 to 108 days were used. Compound 6k was initially evaluated at a single dose of 300 mg/kg, administered daily for 14 days by oral gavage. The compounds were administered in citric acid and adefovir dipivoxil was used as a positive control. A control group which received vehicle was used a negative control. Following the treatment, mice were sacrificed and liver tissue analyzed for HBV DNA using Southern blot analysis. The data was statistically evaluated using Kruskall-Wallis non-parametric ANOVA.
(§1) (a) Male and female transgenic mice (founder 1.3.32) were infected with human hepatitis B virus. Following infection, animals were orally administered Compound 6k, or a placebo of 0.05 M citric acid, pH 2.0 once daily for 14 days. Dosage was 300 mg/kg/d for Compound 6k. The positive control, ADV, was administered at 10 mg/kg/d.
as §1, with “Male” for “(a) Male”, “add,” for “acid,”, “Dosages were 100, 10.5 and 1” for “Dosage was 300”, “6K.” for “6k.”

HBV WT = assay: HepG2.2.15 cell-based HBV assay, wild type; settings: Hepatitis B virus, HBV WT, 9 daily doses; for EC50: read-out: EC50; for EC90: read-out: EC90
Method: Selected compounds were evaluated in in vitro cell-based HepG2.2.15 HBV assay.
Antiviral analysis. For the antiviral analyses, confluent cultures of 2.2.1.5 cells were maintained on 96-well flat-bottomed tissue culture plates in RPMI1640 medium with 2% fetal bovine serum. Cultures (6 per each test concentration on two replicate plates) were treated with 9 consecutive daily doses of the test compounds. Medium was changed daily with fresh test compounds. HBV nucleic acid and protein levels were measured 24 hours after the last treatment. Extracellular (virion) HBV DNA levels were assessed by quantitative blot hybridization. Intracellular HBV DNA levels were measured by quantitative Southern blot hybridization.
The uptake of neutral red dye was used to determine the relative level of toxicity 24 hours following the last treatment. The absorbance of internalized dye at […] (A510) was used for the semi-quantitative analysis. Values are presented as a percentage of the average A510 values (±standard deviations) in 9 separate cultures of untreated cells maintained on the 96-well plates seeded at the same time with the identical pool of stock cells used for the antiviral analyses and maintained in an identical manner. A total of 3 cultures were treated with each concentration of the test compound.

HBV-3TC-R4 LMMV = type: cell-based; settings: Hepatitis B virus
hepatitis B virus (HBV) = assay: Effect of i.p. administration on hepatitis B virus in transgenic mice; type: in vivo
Method: Compound 5 was evaluated in transgenic mice expressing hepatitis B virus (HBV). […] Its activity was also similar to the adefovir dipivoxil (ADV) anti-HBV activity; however, the two compounds seemed to suppress different HBV DNA species. […] In contrast, Compound 5 appeared to indiscriminately remose all HBV DNA species, including the bands typically left by ADV, which may reflect a different mechanism of action other than classical chain termination. Serum HBe, liver HBs, and HBc were not affected by Compound 5 treatment, which is consistent in transgenic mice with compounds that block viral synthesis “downstream” from mRNA synthesis, such as blockage of polymerase activities. A minimal effective dosage was determined to be between 1.6-0.5 mg/kg/day, which was similar to ADV minimal effective dosage of 1.0 mg/kg/day (Table 8).

human hepatitis B virus [2] = assay: Anti-HBV activity in the HBV transgenic mouse model, oral administration; type: in vivo, transgenic mice; settings: p.o., qd × 14 d
RIG-I = target: T1, RIG-I (Homo sapiens, UniProt O95786); assay: RIG-I translocation on dsRNA, single-molecule PIFE assay; type: biochemical; settings: PIFE assay
T1 sequence (O95786 1-925): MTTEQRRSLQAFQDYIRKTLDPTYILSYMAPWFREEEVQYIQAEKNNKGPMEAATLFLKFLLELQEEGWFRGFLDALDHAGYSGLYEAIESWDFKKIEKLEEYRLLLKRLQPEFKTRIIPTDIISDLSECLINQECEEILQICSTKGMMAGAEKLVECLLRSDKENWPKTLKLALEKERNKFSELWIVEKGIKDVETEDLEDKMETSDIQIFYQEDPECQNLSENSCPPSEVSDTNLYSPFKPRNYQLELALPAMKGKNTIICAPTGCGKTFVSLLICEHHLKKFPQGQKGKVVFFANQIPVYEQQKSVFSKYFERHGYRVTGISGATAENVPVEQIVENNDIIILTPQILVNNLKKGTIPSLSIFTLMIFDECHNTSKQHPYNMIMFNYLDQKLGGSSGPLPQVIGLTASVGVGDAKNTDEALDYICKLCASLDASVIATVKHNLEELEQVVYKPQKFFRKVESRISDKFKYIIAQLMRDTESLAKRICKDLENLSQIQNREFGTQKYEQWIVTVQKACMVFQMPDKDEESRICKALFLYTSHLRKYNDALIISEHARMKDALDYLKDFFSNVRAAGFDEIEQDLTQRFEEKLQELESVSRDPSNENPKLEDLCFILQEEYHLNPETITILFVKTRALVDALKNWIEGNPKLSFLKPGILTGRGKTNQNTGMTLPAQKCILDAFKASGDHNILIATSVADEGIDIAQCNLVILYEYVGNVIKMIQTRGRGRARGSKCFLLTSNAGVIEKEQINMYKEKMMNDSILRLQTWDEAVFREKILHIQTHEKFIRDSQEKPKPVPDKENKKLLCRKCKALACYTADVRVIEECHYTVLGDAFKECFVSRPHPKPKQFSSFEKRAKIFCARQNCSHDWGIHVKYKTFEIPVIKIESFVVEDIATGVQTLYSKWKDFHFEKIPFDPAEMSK
Method: An in vitro single-molecule fluorescence assay termed PIFE (protein induced fluorescence enhancement) was employed to monitor such movement (Myong, S. et al., Science, 323, 1070, 2009).
For quantitation of RIG-I translocation, Single molecule PIFE yields were estimated. Single molecule PIFE yields are obtained from several hundred molecules simultaneously, allowing statistically reliable data collection.
The translocation as above was carried out using different concentrations of nucleotide compound.
A standard dsRNA (25 bp) was used as a main substrate for RIG-I translocation assay. […] The ratio between rapid (stimulated) translocation and slow translocation would be accounted for in the estimation of compound strength. In order to quantify the affinity of the compound to RIG-I or to RNA substrate, various concentrations of the compound (1-100 μM range) were used in the assay. This enabled the calculation of the association/dissociation constant for each compound, which was a useful measure to apply in cell-based evaluation of compound potency.
The same translocation assay was used on dsRNA, which contains […] moiety with and without the compound.

[3] = Cytotoxicity by neutral red dye uptake in HCV replicon cultures; type: cell-based; settings: human, AVA5 HCV replicon cell line (sub-genomic CON1, genotype 1b); single drug, Table 9; read-out: CC50
Method: Antiviral activity against HCV was assessed in a 3-day assay (Okuse, et al., 2005; Antiviral. Res. 65:23; Korba, et al., 2008, Antiviral Res. 77:56) using the stably-expressing HCV replicon cell line, AVA5 (sub-genomic (CON1), genotype 1b) (Blight, et al., 2000; Science 290:1972) maintained as sub-confluent cultures on 96-well plates. Antiviral activity was determined by blot hybridization analysis of intracellular HCV RNA (normalized to the level of cellular B-actin RNA in each culture sample). Cytotoxicity was assessed by neutral red dye uptake in cultures maintained in parallel plates.
EC50, EC90, and CC50 values were calculated by linear regression analysis (MS EXCEL®, QuattroPro®) using data combined from all treated cultures Korba & Gerin, 1992, Antivir. Res. 19:55; Okuse, et al., 2005, Antivir. Res. 65:23). […]
Combination treatments are conducted as previously described. Briefly, two agents were mixed together at a pre-determined concentration ratio. […] Analysis of drug interactions in the combination studies was determined by the use of the CALCUSYN program (Biosoft, Inc., Cambridge, United Kingdom). […]

In the case of CC(C)[C@H](N)C(=O)O[C@@H]1[C@@H](CO)O[C@@H](n2ccc(N)nc2=O)[C@]1(C)O [2C MeCyt (NM 283)], the EC50 (HCV) is reported as 1.4 µM.

For CC(C)(C)C(=O)OCOP(=O)(COCCn1cnc2c(N)ncnc21)OCOC(=O)C(C)(C)C [ADV, adefovir dipivoxil, reference compound], the “Liver HBV RNA (log transcripts ± sd)” value (human hepatitis B virus [1]) was 10.5 ± 0.4 log transcripts, the “QPCR Liver HBV DNA (pg/μg mean ± sd)” value (human hepatitis B virus [1]) was 1.7 ± 1.1 pg/µg and the “Southern blot Liver HBV DNA (pg/μg mean ± sd)” value (human hepatitis B virus [1]) was 0.9 ± 1.1 pg/µg. For the same compound, the EC50 (HBV WT) was 1500 nM, the EC90 (HBV WT) was 7 µM and the EC50 (HBV-3TC-R4 LMMV) was 2200 nM. The EC90 (HBV-3TC-R4 LMMV) was 8.3 µM, the “Liver HBV DNA (mean pg viral/μg cellular DNA ± stdev)” value (hepatitis B virus (HBV); 10 mg/kg/d, once daily 14 days) was 2.7 ± 1.4 (9) pg viral/μg cellular DNA and the “Serum HBV DNA (mean log10 genome equivalents/mL serum ± stdev)” value (hepatitis B virus (HBV); 10 mg/kg/d, once daily 14 days) was 4.9 ± 0.4 (9) log10 genome equivalents/mL serum. The minimal effective dosage (hepatitis B virus (HBV); HBV transgenic mice) was 1.0 mg/kg/day, the “Liver HBV DNA Southern blot (pg/μg mean ± sd)” value (human hepatitis B virus [2]; 0.032 mg/kg/d) was 8.3 ± 11.3 (3) pg/μg and the “Liver HBV DNA Southern blot (pg/μg mean ± sd)” value (human hepatitis B virus [2]; 0.10 mg/kg/d) was 15.6 ± 13.7 (4) pg/μg.

In the case of Nc1ccn([C@@H]2CS[C@H](CO)O2)c(=O)n1 [Compound 3TC, Lamivudine], the EC50 (HBV WT) is reported as 200 nM, the EC90 (HBV WT) is reported as 0.7 µM and the EC50 (HBV-3TC-R4 LMMV) is reported as > 100000 nM. The EC90 (HBV-3TC-R4 LMMV) was > 100 µM.

In the case of NC(=O)c1ncn([C@@H]2O[C@H](CO)[C@@H](O)[C@H]2O)n1 [Ribavirin], the EC50 (HCV) is reported as > 30 µM.

For CO[C@H]1C(OP(=O)(O)OC[C@H]2O[C@@H](n3cnc4c(N)ncnc43)CC2O)[C@@H](CO)O[C@H]1n1ccc(=O)[nH]c1=O (some centres unmarked) [SB 70], the “RIG-I translocation on dsRNA (activity in words)” value (“RIG-I translocation on dsRNA” below) (RIG-I) was “varying degrees of RIG-I translocation”.

In the case of CO[C@H]1C(OP(=O)(O)OC[C@H]2O[C@@H](n3cnc4c(N)ncnc43)CC2O)[C@@H](COP(=O)(O)OP(=O)(O)OP(=O)(O)O)O[C@H]1n1ccc(=O)[nH]c1=O (some centres unmarked) [SB 80], the “RIG-I translocation on dsRNA” value (RIG-I) is reported as “varying degrees of RIG-I translocation”.

For Nc1ncnc2c1ccn2[C@H]1CC(OP(=O)(O)OC[C@H]2O[C@@H](n3cnc4c(N)ncnc43)CC2O)[C@@H](COP(=O)(O)OP(=O)(O)OP(=O)(O)O)O1 (some centres unmarked) [SB 90], the “RIG-I translocation on dsRNA” value (RIG-I) was “varying degrees of RIG-I translocation”.

For CCC[C@H](NC(=O)[C@@H]1[C@H]2CCC[C@H]2CN1C(=O)[C@@H](NC(=O)[C@@H](NC(=O)c1cnccn1)C1CCCCC1)C(C)(C)C)C(=O)C(=O)NC1CC1 [Vertex (telaprevir), telaprevir, reference compound], the CC50 at 3 day [3] was < 80 µM and the EC50 (HCV) was 0.25 µM.
